{"source": "patent US10945992B1", "about": "“Dosage forms of rofecoxib and related methods” (Tremeau Pharmaceuticals, Inc., priority 2019, dated 2021)", "key": {"[1]": {"experiment": "TRM-201-PK-101 safety: treatment-emergent adverse events", "assay_type": "in vivo, human", "conditions": "25 mg, 101 study", "excerpt": "Safety and tolerability will include monitoring and recording of AEs, clinical laboratory assessments (hematology, serum chemistry, and urinalysis), vital sign measurements, 12-lead ECG assessments, and physical examination findings.\nA treatment-emergent AE (TEAE) is defined as any event not present before exposure to study drug or any event already present that worsens in either intensity or frequency after exposure to study drug.\nAll safety data will be summarized for the PILOT portion, MAIN study, and FOOD-EFFECT sub study combined. Subjects who received 2 single doses will be counted once with all of their safety data combined. The incidence of adverse events will be presented by the MedDRA system organ class and preferred term, relationship to the test article, and severity. Descriptive statistics of clinical laboratory results and vital signs will be presented, as well as summaries of changes from baseline (from the Check-in visit(s)) and of clinically notable values.\nAll AE data will be presented in a data listing by study part and within the FOOD-EFFECT sub study by treatment sequence. TEAEs will be summarized overall, as well as by severity and relationship to study drug. Serious AEs and AEs leading to discontinuation of study drug will also be presented in the data listings and summarized."}, "[2]": {"experiment": "101 and 102 PK studies combined (fasted)", "assay_type": "in vivo", "conditions": "human, plasma, oral; for half-life: read-out: median t1/2 (converted)", "excerpt": "The primary analysis model for data from this trial included data from this trial and that from the 25-mg dose from TRM-201-PK-101 (fasted results only), which were combined via mixed model repeated measures analysis (MMRM) in order to maximize the precision of the estimates. An MMRM analysis on natural log scale was simulated for the 25-mg dose (N=50) data using the between-subject SD of 0.31 from TRM-201-PK-101 and for the estimated 25-mg and 20-mg data that N=20 subjects were expected to yield in this study. The purpose of this simulation was to estimate the SD for the least squares natural log scale mean for the 20-mg dose. […] The subject effect data expected for this study was simulated from the back-calculated variance of the between-subject mean effect (Var (between-subject-mean)=SDbetween^2−SDwithin^2). For the maximum between- and within-SB's 0.31 and 0.12, 1000 simulations yielded an effective SD of 0.21 for the least squares mean of 20 mg, which was used for the following power calculations.\nThe arithmetic mean AUC0-∞ for 12.5 mg of TRM-201 is 2010 ng·hr/mL. The geometric mean AUC0-∞ for 12.5 mg of TRM-201 is 1880 ng·hr/mL. The arithmetic mean AUC0-∞ for 17.5 mg of TRM-201 is 3290 ng·hr/mL. The geometric mean AUC0-∞ for 17.5 mg of TRM-201 is 3110 ng·hr/mL. The arithmetic mean AUC0-∞ for 20 mg of TRM-201 is 3750 ng·hr/mL. The geometric mean AUC0-∞ for 20 mg of TRM-201 is 3550 ng·hr/mL. The arithmetic mean AUC0-∞ for 25 mg of TRM-201 is 4810 ng·hr/mL. The geometric mean AUC0-∞ for 25 mg of TRM-201 is 4590 ng·hr/mL.\nThe median time at which the Cmax is observed (Tmax) for 12.5 mg of TRM-201 is 2.00 hours. The median Tmax for 17.5 mg of TRM-201 is 2.00 hours. The Tmax for 20 mg of TRM-201 is 2.00 hours."}, "[3]": {"experiment": "TRM-201-PK-102 safety: treatment-emergent adverse events", "assay_type": "in vivo, human", "excerpt": "The timing and frequency of all safety assessments was listed in the schedule of events (Table 19). Safety and tolerability included monitoring and recording of AEs, clinical laboratory assessments (hematology, serum chemistry, and urinalysis), vital sign measurements, 12-lead ECG assessments, and physical examination findings. […] If clinical significance was noted, the result and reason for significance were documented. Any abnormal laboratory test results (hematology, clinical chemistry, or urinalysis) or other safety assessments (e.g., ECGs, vital sign measurements), including those that worsen from baseline, felt to be clinically significant in the medical and scientific judgment of the investigator were to be recorded as AEs or SAEs.\nThe investigator was responsible for reporting all AEs that were observed or reported during the study, regardless of their relationship to study drug or their clinical significance. If there was any doubt as to whether a clinical observation was an AE, the event was reported. An AE was defined as any untoward medical occurrence in a subject enrolled into this study regardless of its causal relationship to study drug. Subjects were instructed to contact the investigator at any time after enrollment if any symptoms developed. A treatment-emergent AE (TEAE) was defined as any event not present before exposure to study drug or any event already present that worsens in either intensity or frequency after exposure to study drug.\nAll safety data were summarized. The incidence of adverse events was presented by the MedDRA system organ class and preferred term, relationship to the test article, and severity. Descriptive statistics of clinical laboratory results and vital signs were presented, as well as summaries of changes from baseline (from the Check-in visit(s)) and of clinically notable values. All AE data were presented in a data listing TEAEs were summarized overall, as well as by severity and relationship to study drug. Serious AEs and AEs leading to discontinuation of study drug were also presented in the data listings and summarized. Actual values and changes from Baseline for clinical laboratory test results, vital sign measurements, and 12-lead ECG results were summarized at each time point using descriptive statistics (number of subjects, mean, SD, median, minimum, and maximum)."}, "COX-2": {"biological_target": "COX-2 (Homo sapiens, UniProt P35354)", "sequence (P35354 18-604)": "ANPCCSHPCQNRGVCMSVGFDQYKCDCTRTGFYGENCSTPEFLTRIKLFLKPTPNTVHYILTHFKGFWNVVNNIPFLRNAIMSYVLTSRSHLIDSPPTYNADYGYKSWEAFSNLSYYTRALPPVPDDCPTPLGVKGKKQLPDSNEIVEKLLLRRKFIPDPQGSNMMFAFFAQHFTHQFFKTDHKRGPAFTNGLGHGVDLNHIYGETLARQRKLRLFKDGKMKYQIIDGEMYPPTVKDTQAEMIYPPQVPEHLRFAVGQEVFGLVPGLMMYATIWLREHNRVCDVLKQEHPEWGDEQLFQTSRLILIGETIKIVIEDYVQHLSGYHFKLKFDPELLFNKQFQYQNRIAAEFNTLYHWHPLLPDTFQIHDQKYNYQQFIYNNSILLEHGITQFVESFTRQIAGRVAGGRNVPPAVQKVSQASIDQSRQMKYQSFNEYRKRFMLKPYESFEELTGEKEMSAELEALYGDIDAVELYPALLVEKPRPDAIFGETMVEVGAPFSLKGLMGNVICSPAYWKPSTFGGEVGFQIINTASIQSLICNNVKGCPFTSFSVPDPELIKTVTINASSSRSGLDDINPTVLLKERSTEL", "conditions": "at therapeutic concentrations; cited from earlier work"}}, "note": "Where two headings read alike, the source gives them in different places.", "data": [{"smiles": "CS(=O)(=O)c1ccc(C2=C(c3ccccc3)C(=O)OC2)cc1", "note": "[TRM-201, 4-[4-(methylsulfonyl)phenyl]-3-phenyl-2(5H)-furanone]", "values": [{"measurement": "serious TEAE or TEAE leading to discontinuation of the study", "setting": "[1]", "value": "No subjects"}, {"measurement": "subjects observed with TEAEs", "setting": "[1]", "value": "four"}, {"measurement": "subjects observed with TEAEs, share of the cohort", "setting": "[1]", "value": 7.5, "unit": "%"}, {"measurement": "subjects with TEAE related to treatment", "setting": "[1]", "value": 2, "unit": "subjects"}, {"measurement": "subjects with TEAE related to treatment, share of the cohort", "setting": "[1]", "value": 3.8, "unit": "%"}, {"measurement": "AUC(0-inf)", "setting": "[2]; 12.5 mg, 101 and 102 studies (FIG. 47), read-out: arithmetic mean AUC0-∞", "value": 2010, "unit": "ng·h/mL"}, {"measurement": "Cmax", "setting": "[2]; 12.5 mg, 101 and 102 studies (FIG. 47), read-out: arithmetic mean Cmax", "value": 151, "unit": "ng/mL"}, {"measurement": "AUC(0-inf)", "setting": "[2]; 12.5 mg, 101 and 102 studies (FIG. 47), read-out: geometric mean AUC0-∞", "value": 1880, "unit": "ng·h/mL"}, {"measurement": "Cmax", "setting": "[2]; 12.5 mg, 101 and 102 studies (FIG. 47), read-out: geometric mean Cmax", "value": 144, "unit": "ng/mL"}, {"measurement": "half-life", "setting": "[2]; 12.5 mg", "value": 12, "unit": "h"}, {"measurement": "AUC(0-inf)", "setting": "[2]; 17.5 mg, 101 and 102 studies (FIG. 47), read-out: arithmetic mean AUC0-∞", "value": 3290, "unit": "ng·h/mL"}, {"measurement": "Cmax", "setting": "[2]; 17.5 mg, 101 and 102 studies (FIG. 47), read-out: arithmetic mean Cmax", "value": 236, "unit": "ng/mL"}, {"measurement": "AUC(0-inf)", "setting": "[2]; 17.5 mg, 101 and 102 studies (FIG. 47), read-out: geometric mean AUC0-∞", "value": 3110, "unit": "ng·h/mL"}, {"measurement": "Cmax", "setting": "[2]; 17.5 mg, 101 and 102 studies (FIG. 47), read-out: geometric mean Cmax", "value": 224, "unit": "ng/mL"}, {"measurement": "Tmax", "setting": "[2]; 17.5 mg, read-out: median Tmax", "value": 2, "unit": "h"}, {"measurement": "half-life", "setting": "[2]; 17.5 mg", "value": 11.7, "unit": "h"}, {"measurement": "AUC(0-inf)", "setting": "[2]; 20 mg, 101 and 102 studies (FIG. 47), read-out: arithmetic mean AUC0-∞", "value": 3750, "unit": "ng·h/mL"}, {"measurement": "Cmax", "setting": "[2]; 20 mg, 101 and 102 studies (FIG. 47), read-out: arithmetic mean Cmax", "value": 277, "unit": "ng/mL"}, {"measurement": "AUC(0-inf)", "setting": "[2]; 20 mg, 101 and 102 studies (FIG. 47), read-out: geometric mean AUC0-∞", "value": 3550, "unit": "ng·h/mL"}, {"measurement": "Cmax", "setting": "[2]; 20 mg, 101 and 102 studies (FIG. 47), read-out: geometric mean Cmax", "value": 259, "unit": "ng/mL"}, {"measurement": "Tmax", "setting": "[2]; 20 mg, read-out: Tmax", "value": 2, "unit": "h"}, {"measurement": "half-life", "setting": "[2]; 20 mg", "value": 12.2, "unit": "h"}, {"measurement": "AUC(0-inf)", "setting": "[2]; 25 mg, 101 and 102 studies combined (FIG. 47), read-out: arithmetic mean AUC0-∞", "value": 4810, "unit": "ng·h/mL"}, {"measurement": "Cmax", "setting": "[2]; 25 mg, 101 and 102 studies combined (FIG. 47), read-out: arithmetic mean Cmax", "value": 336, "unit": "ng/mL"}, {"measurement": "AUC(0-inf)", "setting": "[2]; 25 mg, 101 and 102 studies combined (FIG. 47), read-out: geometric mean AUC0-∞", "value": 4590, "unit": "ng·h/mL"}, {"measurement": "Cmax", "setting": "[2]; 25 mg, 101 and 102 studies combined (FIG. 47), read-out: geometric mean Cmax", "value": 325, "unit": "ng/mL"}, {"measurement": "Tmax", "setting": "[2]; 25 mg, 101 and 102 studies combined, read-out: Tmax", "value": 2.5, "unit": "h"}, {"measurement": "half-life", "setting": "[2]; 25 mg, 101 and 102 studies combined", "value": 11.6, "unit": "h"}, {"measurement": "TEAE in preferred term", "setting": "[3]; 12.5 mg", "value": "constipation"}, {"measurement": "subjects who exhibited a TEAE", "setting": "[3]; 12.5 mg", "value": "One"}, {"measurement": "TEAE in preferred term", "setting": "[3]; 25 mg", "value": "ear discomfort and headache"}, {"measurement": "subjects who exhibited a TEAE", "setting": "[3]; 25 mg", "value": "two"}, {"measurement": "severity of all reported TEAE", "setting": "[3]; 102 PK study", "value": "mild"}, {"measurement": "related TEAE, serious TEAE, TEAE leading to study discontinuation, or severe TEAE", "setting": "[3]; 102 PK study, all doses", "value": "No subjects"}, {"measurement": "subjects who exhibited a TEAE, total", "setting": "[3]; 102 PK study, all doses", "value": "three"}, {"measurement": "incidence of TEAE leading to study discontinuation", "setting": "[3]; at any dosage", "value": "no incidence"}, {"measurement": "incidence of related TEAE", "setting": "[3]; at any dosage", "value": "no incidence"}, {"measurement": "incidence of serious TEAE", "setting": "[3]; at any dosage", "value": "no incidence"}, {"measurement": "inhibition of COX-2", "setting": "COX-2", "value": "inhibits COX-2"}]}]}
